The record followed here is patent US8471005B2 (Cephalon, Inc., priority 2008, dated 2013).

One test deals with T1, ALK (Homo sapiens, UniProt Q9UM73).
T1 construct: host or cells: baculovirus expression system
In words: ALK Kinase Assay (ELISA/TRF, PLC-γ substrate). Format: biochemical. As to conditions: ALK kinase inhibition, 1 μM ATP; read-out: ALK Potency. An outline of the steps:
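First, plates are coated with substrate (phospholipase C-γ, 10 μg/mL, TBS). Next, 30 ng/ml ALK initiates phosphorylation for 15 min at 37° C. Then Eu-N1 PT66 antibody is added for detection, and a nonlinear dose-response fit of percent inhibition yields IC50.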
For orientation: ELISA stands for enzyme-linked immunosorbent assay.

The target in a further test is T2, JAK2 (Homo sapiens, UniProt O60674).
T2 construct: host or cells: baculovirus expression system
In words: Recombinant Human JAK2 Kinase Assay (TRF). Format: biochemical. The settings on record: JAK2 kinase inhibition, 0.2 μM ATP; read-out: JAK2 Potency. An outline of the steps: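 TRF read-out: Eu-N1 PY100 anti-phosphotyrosine antibody detects product. Enzyme is baculovirus-expressed JAK2 at 15 ng/ml; substrate is a biotinyl 15-mer peptide bound to Neutravidin-coated wells. Buffer 20 mM HEPES pH 7.2, 0.2 μM ATP, 1 mM MnCl2, 0.1% BSA, 2.5% DMSO final; 20 min, RT.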

T1 sequence (Q9UM73 19-1620): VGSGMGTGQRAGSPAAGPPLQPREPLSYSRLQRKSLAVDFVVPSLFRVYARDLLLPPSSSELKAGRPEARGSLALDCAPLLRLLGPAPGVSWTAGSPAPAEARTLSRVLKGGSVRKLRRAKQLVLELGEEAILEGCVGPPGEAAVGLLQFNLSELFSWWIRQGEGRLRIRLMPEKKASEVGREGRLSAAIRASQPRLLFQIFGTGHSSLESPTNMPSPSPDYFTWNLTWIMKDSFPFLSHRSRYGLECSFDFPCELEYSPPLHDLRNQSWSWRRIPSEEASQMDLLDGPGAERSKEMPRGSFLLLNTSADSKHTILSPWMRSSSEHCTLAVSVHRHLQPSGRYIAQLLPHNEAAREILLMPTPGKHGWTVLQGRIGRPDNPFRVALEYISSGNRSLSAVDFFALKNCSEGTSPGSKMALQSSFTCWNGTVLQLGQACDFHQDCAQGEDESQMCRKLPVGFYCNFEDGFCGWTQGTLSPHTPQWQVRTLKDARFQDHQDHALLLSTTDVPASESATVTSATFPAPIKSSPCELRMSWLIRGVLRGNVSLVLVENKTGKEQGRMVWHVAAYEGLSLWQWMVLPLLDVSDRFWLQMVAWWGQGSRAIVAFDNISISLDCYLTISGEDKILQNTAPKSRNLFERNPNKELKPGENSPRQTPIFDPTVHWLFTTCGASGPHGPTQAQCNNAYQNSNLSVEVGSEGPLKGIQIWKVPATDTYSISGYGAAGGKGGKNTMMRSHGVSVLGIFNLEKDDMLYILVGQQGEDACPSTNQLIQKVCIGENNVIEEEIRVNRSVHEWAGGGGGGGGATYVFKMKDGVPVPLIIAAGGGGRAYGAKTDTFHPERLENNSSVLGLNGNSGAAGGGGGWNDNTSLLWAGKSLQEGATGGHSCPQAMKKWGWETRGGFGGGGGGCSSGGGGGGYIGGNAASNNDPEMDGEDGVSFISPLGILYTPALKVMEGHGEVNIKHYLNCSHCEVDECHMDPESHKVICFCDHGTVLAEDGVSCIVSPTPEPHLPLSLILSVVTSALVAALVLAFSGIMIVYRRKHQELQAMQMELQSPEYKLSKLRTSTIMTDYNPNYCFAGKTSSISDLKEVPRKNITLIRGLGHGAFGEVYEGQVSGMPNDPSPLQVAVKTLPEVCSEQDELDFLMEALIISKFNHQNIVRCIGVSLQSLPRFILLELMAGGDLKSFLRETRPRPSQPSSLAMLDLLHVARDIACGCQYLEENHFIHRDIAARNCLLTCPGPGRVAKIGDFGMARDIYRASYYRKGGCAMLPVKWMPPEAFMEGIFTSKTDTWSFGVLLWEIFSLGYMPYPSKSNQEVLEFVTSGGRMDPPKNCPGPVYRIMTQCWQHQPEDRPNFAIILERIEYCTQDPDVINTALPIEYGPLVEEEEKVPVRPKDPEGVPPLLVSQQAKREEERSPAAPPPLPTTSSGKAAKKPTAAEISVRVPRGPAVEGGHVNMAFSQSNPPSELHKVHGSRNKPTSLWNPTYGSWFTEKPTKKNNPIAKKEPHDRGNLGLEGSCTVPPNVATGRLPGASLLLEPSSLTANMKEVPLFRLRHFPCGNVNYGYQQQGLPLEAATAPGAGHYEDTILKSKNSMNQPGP
T2 sequence (O60674 whole entry): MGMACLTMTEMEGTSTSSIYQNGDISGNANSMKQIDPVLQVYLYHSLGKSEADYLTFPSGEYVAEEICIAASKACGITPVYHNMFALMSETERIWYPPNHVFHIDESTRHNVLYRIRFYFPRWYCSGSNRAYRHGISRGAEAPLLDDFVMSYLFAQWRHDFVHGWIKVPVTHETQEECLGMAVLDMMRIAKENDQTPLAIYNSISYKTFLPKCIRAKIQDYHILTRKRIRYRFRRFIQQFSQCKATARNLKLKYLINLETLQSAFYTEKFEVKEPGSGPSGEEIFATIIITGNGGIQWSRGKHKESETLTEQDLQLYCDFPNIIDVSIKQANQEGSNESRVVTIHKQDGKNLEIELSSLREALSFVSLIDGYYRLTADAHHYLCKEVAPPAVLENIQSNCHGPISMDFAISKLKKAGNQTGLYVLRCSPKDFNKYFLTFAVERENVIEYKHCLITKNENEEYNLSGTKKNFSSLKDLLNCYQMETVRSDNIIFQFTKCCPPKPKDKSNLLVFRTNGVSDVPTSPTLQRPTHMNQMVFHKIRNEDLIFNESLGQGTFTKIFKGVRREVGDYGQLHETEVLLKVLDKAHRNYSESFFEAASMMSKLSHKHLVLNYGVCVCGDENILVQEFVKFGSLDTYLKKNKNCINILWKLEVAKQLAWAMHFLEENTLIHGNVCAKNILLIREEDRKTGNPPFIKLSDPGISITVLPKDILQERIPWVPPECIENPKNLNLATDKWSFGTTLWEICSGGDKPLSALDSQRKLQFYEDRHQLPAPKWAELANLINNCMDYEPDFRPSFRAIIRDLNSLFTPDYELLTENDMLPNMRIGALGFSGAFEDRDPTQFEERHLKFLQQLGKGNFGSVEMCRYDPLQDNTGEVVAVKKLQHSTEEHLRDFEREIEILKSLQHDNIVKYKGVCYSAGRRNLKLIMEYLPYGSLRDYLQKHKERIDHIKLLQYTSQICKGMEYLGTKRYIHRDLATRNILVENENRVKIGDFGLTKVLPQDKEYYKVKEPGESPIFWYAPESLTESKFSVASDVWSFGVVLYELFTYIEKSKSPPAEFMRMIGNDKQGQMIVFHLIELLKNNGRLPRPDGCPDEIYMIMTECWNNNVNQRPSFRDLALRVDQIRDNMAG

Regarding `COc1ccccc1-c1ccc2cnc(Nc3ccc(C4CCN(CC(N)=O)CC4)c(C)c3)nn12` [Example 935, 2-(4-{4-[7-(2-Methoxy-phenyl)-pyrrolo[2,1-f][1,2,4]triazin-2-ylamino]-2-methyl-phenyl}-piperidin-1-yl)-acetamide], the IC50 on ALK and on JAK2 was less than 100 nM each time.

With `CN1Cc2ccc(Nc3ncc4ccc(-c5cccc(S(=O)(=O)NC(C)(C)C)c5)n4n3)cc2C1` [Example 936, N-tert-Butyl-3-[2-(2-methyl-2,3-dihydro-1H-isoindol-5-ylamino)-pyrrolo[2,1-f][1,2,4]triazin-7-yl]-benzenesulfonamide], the IC50 is 100 to 1000 nM at ALK and less than 100 nM on JAK2.

With `COc1ccc(-c2ccc3cnc(Nc4ccc5c(c4)CN(C)C5)nn23)cn1` [Example 937, [7-(6-Methoxy-pyridin-3-yl)-pyrrolo[2,1-f][1,2,4]triazin-2-yl]-(2-methyl-2,3-dihydro-1H-isoindol-5-yl)-amine], the IC50 on ALK is 1000 to 10000 nM; on JAK2, less than 100 nM.

For the compound `Cc1cc(Nc2ncc3ccc(-c4cccc(S(=O)(=O)NC(C)(C)C)c4)n3n2)ccc1C1CCN(CC(N)=O)CC1` [Example 938, 2-(4-{4-[7-(3-tert-Butylsulfamoyl-phenyl)-pyrrolo[2,1-f][1,2,4]triazin-2-ylamino]-2-methyl-phenyl}-piperidin-1-yl)-acetamide], the IC50 on ALK and on JAK2 was less than 100 nM each time.

For `COc1ccc(-c2ccc3cnc(Nc4ccc(C5CCN(CC(N)=O)CC5)c(NC(C)=O)c4)nn23)cn1` [Example 939, 2-(4-{2-Acetylamino-4-[7-(6-methoxy-pyridin-3-yl)-pyrrolo[2,1-f][1,2,4]triazin-2-ylamino]-phenyl}-piperidin-1-yl)-acetamide], the IC50 on ALK was 100 to 1000 nM; at JAK2 it was less than 100 nM.

Consider `Cc1cc(Nc2ncc3ccc(-c4cccc(S(=O)(=O)NC(C)(C)C)c4)n3n2)ccc1C1CCN(C)CC1` [Example 940, N-tert-Butyl-3-{2-[3-methyl-4-(1-methyl-piperidin-4-yl)-phenylamino]-pyrrolo[2,1-f][1,2,4]triazin-7-yl}-benzenesulfonamide], for which the IC50 on ALK and at JAK2 was less than 100 nM each time.

For the compound `COc1ccc(-c2ccc3cnc(Nc4ccc(C5CCN(C)CC5)c(C)c4)nn23)cn1` [Example 941, [7-(6-Methoxy-pyridin-3-yl)-pyrrolo[2,1-f][1,2,4]triazin-2-yl]-[3-methyl-4-(1-methyl-piperidin-4-yl)-phenyl]-amine], the IC50 at ALK and at JAK2 was less than 100 nM each time.

In the case of `COc1ccccc1-c1ccc2cnc(Nc3ccc(C4CCN(C)CC4)c(C)c3)nn12` [Example 942, [7-(2-Methoxy-phenyl)-pyrrolo[2,1-f][1,2,4]triazin-2-yl]-[3-methyl-4-(1-methyl-piperidin-4-yl)-phenyl]-amine], the IC50 at ALK and at JAK2 was less than 100 nM each time.

With `CN1C2CCC1CC(c1ccc(Nc3ncc4ccc(-c5cccc(S(=O)(=O)NC(C)(C)C)c5)n4n3)cc1)C2` (stereo not shown) [Example 943, N-tert-Butyl-3-{2-[4-(8-methyl-8-aza-bicyclo[3.2.1]oct-3-yl)-phenylamino]-pyrrolo[2,1-f][1,2,4]triazin-7-yl}-benzenesulfonamide], the values for the IC50 on ALK and on JAK2 were 100 to 1000 nM and less than 100 nM, respectively.

For `COc1ccc(-c2ccc3cnc(Nc4ccc(C5CC6CCC(C5)N6C)cc4)nn23)cn1` (stereo not shown) [Example 944, [7-(6-Methoxy-pyridin-3-yl)-pyrrolo[2,1-f][1,2,4]triazin-2-yl]-[4-(8-methyl-8-aza-bicyclo[3.2.1]oct-3-yl)-phenyl]-amine], the IC50 is 100 to 1000 nM on ALK and less than 100 nM on JAK2.

As to `COc1ccccc1-c1ccc2cnc(Nc3ccc(C4CC5CCC(C4)N5C)cc3)nn12` (stereo not shown) [Example 945, [7-(2-Methoxy-phenyl)-pyrrolo[2,1-f][1,2,4]triazin-2-yl]-[4-(8-methyl-8-azabicyclo[3.2.1]oct-3-yl)-phenyl]-amine], the IC50 on ALK and at JAK2 was less than 100 nM throughout.

Regarding `Cc1cc(Nc2ncc3ccc(-c4cccc(S(C)(=O)=O)c4)n3n2)ccc1C1CCN(C)CC1` [Example 946, [7-(3-Methanesulfonyl-phenyl)-pyrrolo[2,1-f][1,2,4]triazin-2-yl]-[3-methyl-4-(1-methyl-piperidin-4-yl)-phenyl]-amine], the IC50 at ALK and on JAK2 was less than 100 nM each time.

Regarding `Cc1cc(Nc2ncc3ccc(-c4ccc(S(C)(=O)=O)cc4)n3n2)ccc1C1CCN(C)CC1` [Example 947, [7-(4-Methanesulfonyl-phenyl)-pyrrolo[2,1-f][1,2,4]triazin-2-yl]-[3-methyl-4-(1-methyl-piperidin-4-yl)-phenyl]-amine], the IC50 at ALK and on JAK2 was less than 100 nM each time.

As for `Cc1cc(Nc2ncc3ccc(-c4cccc(S(C)(=O)=O)c4)n3n2)ccc1C1CCN(CC(N)=O)CC1` [Example 948, 2-(4-{4-[7-(3-Methanesulfonyl-phenyl)-pyrrolo[2,1-f][1,2,4]triazin-2-ylamino]-2-methyl-phenyl}-piperidin-1-yl)-acetamide], the IC50 on ALK and on JAK2 was less than 100 nM in each case.

As to `Cc1cc(Nc2ncc3ccc(-c4ccc(S(C)(=O)=O)cc4)n3n2)ccc1C1CCN(CC(N)=O)CC1` [Example 949, 2-(4-{4-[7-(4-Methanesulfonyl-phenyl)-pyrrolo[2,1-f][1,2,4]triazin-2-ylamino]-2-methyl-phenyl}-piperidin-1-yl)-acetamide], the IC50 on ALK and on JAK2 was less than 100 nM each time.

`CN1CCN(c2cccc(Nc3ncc4ccc(-c5cnn(S(C)(=O)=O)c5)n4n3)c2)CC1` [Example 950, [7-(1-Methanesulfonyl-1H-pyrazol-4-yl)-pyrrolo[2,1-f][1,2,4]triazin-2-yl]-[3-(4-methyl-piperazin-1-yl)-phenyl]-amine]: the IC50 on ALK is 100 to 1000 nM; on JAK2, less than 100 nM.

Take `CS(=O)(=O)c1cccc(-c2ccc3cnc(Nc4ccc(C5=CCN(CC(N)=O)CC5)c(C(F)(F)F)c4)nn23)c1` [Example 951, 2-(4-{4-[7-(3-Methanesulfonyl-phenyl)-pyrrolo[2,1-f][1,2,4]triazin-2-ylamino]-2-trifluoromethyl-phenyl}-3,6-dihydro-2H pyridin-1-yl) acetamide]: the results for the IC50 on ALK and at JAK2 were 100 to 1000 nM and less than 100 nM, respectively.

With `COc1ccccc1-c1ccc2cnc(Nc3ccc(C4=CCN(CC(N)=O)CC4)c(C(F)(F)F)c3)nn12` [Example 952, 2-(4-{4-[7-(2-Methoxy-phenyl)-pyrrolo[2,1-f][1,2,4]triazin-2-ylamino]-2-trifluoromethyl-phenyl}-3,6-dihydro-2H-pyridin-1-yl)-acetamide], the results for the IC50 on ALK and on JAK2 were 100 to 1000 nM and less than 100 nM, respectively.

On to `COc1ccc(-c2ccc3cnc(Nc4ccc(C5=CCN(CC(N)=O)CC5)c(C(F)(F)F)c4)nn23)cn1` [Example 953, 2-(4-{4-[7-(6-Methoxy-pyridin-3-yl)-pyrrolo[2,1-f][1,2,4]triazin-2-ylamino]-2-trifluoromethyl-phenyl}-3,6-dihydro-2H-pyridin-1-yl)-acetamide], for which the IC50 was 1000 to 10000 nM at ALK and less than 100 nM at JAK2.

`CN1CCC(c2ccc(Nc3ncc4ccc(-c5ccn(C)n5)n4n3)cc2)CC1` [Example 954, [4-(1-Methyl-piperidin-4-yl)-phenyl]-[7-(1-methyl-1H-pyrazol-3-yl)-pyrrolo[2,1-f][1,2,4]triazin-2-yl]-amine]: the IC50 on ALK is 100 to 1000 nM; at JAK2 it was less than 100 nM.

With `Cn1ccc(-c2ccc3cnc(Nc4ccc(C5CCN(CC(N)=O)CC5)cc4)nn23)n1` [Example 955], the IC50 at ALK was 100 to 1000 nM; at JAK2 it was less than 100 nM.

In the case of `CS(=O)(=O)Nc1cccc(-c2ccc3cnc(Nc4ccc(C5CCN(CC(N)=O)CC5)cc4)nn23)c1` [Example 956, 2-(4-{4-[7-(3-Methanesulfonylamino-phenyl)-pyrrolo[2,1-f][1,2,4]triazin-2-ylamino]-phenyl}-piperidin-1-yl)-acetamide], the IC50 on ALK is 100 to 1000 nM; on JAK2, less than 100 nM.

Take `C[C@H](O)CN1CCC(c2ccc(Nc3ncc4ccc(-c5cccc(NS(C)(=O)=O)c5)n4n3)cc2)CC1` [Example 957, N-[3-(2-{4-[1-((S)-2-Hydroxy-propyl)-piperidin-4-yl]-phenylamino}-pyrrolo[2,1-f][1,2,4]triazin-7-yl)-phenyl]-methanesulfonamide]: the IC50 on ALK and on JAK2 was less than 100 nM in each case.

In the case of `CS(=O)(=O)Nc1cccc(-c2ccc3cnc(Nc4ccc(C5CCN(CCO)CC5)cc4)nn23)c1` [Example 958, N-[3-(2-{4-[1-(2-Hydroxy-ethyl)-piperidin-4-yl]-phenylamino}-pyrrolo[2,1-f][1,2,4]triazin-7-yl)-phenyl]-methanesulfonamide], the IC50 on ALK and on JAK2 was less than 100 nM each time.

As for `CN(c1cccc(-c2ccc3cnc(Nc4ccc(C5CCN(CC(N)=O)CC5)cc4)nn23)c1)S(C)(=O)=O` [Example 959, 2-[4-(4-{7-[3-(Methanesulfonyl-methyl-amino)-phenyl]-pyrrolo[2,1-f][1,2,4]triazin-2-ylamino}-phenyl)-piperidin-1-yl]-acetamide], the values for the IC50 on ALK and on JAK2 were 100 to 1000 nM and less than 100 nM, respectively.

Regarding `C[C@H](O)CN1CCC(c2ccc(Nc3ncc4ccc(-c5cccc(N(C)S(C)(=O)=O)c5)n4n3)cc2)CC1` [Example 960, N-[3-(2-{4-[1-((S)-2-Hydroxy-propyl)-piperidin-4-yl]-phenylamino}-pyrrolo[2,1-f][1,2,4]triazin-7-yl)-phenyl]-N-methyl-methanesulfonamide], the IC50 at ALK is 100 to 1000 nM; on JAK2 it was less than 100 nM.
